Blank lines part the entries; values can stand above or below the compound they belong to.
Legend:
[1] = species on record: Bos taurus; assay: Competitive inhibition of bovine pancreatic RNase A type 12-A assessed as degradation of yeast tRNA at 50 uM preincubated for 10 mins before addition of the enzyme by double reciprocal plot analysis
[2] = Competitive inhibition of bovine pancreatic RNase A type 12-A by Dixon plot analysis; set-up: species or system Bos taurus
[3] = target: Angiogenin (Homo sapiens, UniProt P03950); assay: Inhibition of ANG
Chain of Angiogenin (P03950 whole entry): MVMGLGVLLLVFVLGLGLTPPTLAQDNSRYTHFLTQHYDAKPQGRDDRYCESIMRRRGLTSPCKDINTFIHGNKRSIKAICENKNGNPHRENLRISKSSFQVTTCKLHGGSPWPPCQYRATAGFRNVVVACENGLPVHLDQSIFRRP

[4] = target: Ribonuclease pancreatic (Bos taurus) (UniProt P61823); assay: Inhibition of RNase A
[5] = target: T1, Non-secretory ribonuclease (Homo sapiens, UniProt P10153); assay: Inhibition of EDN
T1 sequence (P10153 whole entry): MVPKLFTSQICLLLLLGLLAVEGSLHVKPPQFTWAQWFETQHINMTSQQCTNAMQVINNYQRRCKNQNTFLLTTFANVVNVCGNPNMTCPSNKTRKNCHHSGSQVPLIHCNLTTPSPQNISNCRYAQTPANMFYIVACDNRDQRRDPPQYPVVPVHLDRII

[6] = target: T2, Ribonuclease pancreatic (Bos taurus, UniProt P61823); assay: Inhibition of bovine pancreatic RNase A
T2 sequence (P61823 whole entry): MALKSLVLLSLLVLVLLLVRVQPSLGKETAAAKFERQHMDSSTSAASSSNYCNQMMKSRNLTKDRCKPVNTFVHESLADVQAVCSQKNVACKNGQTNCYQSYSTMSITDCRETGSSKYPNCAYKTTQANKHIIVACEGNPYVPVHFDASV

[7] = Competitive inhibition of bovine pancreatic RNase A type 12-A assessed as degradation of yeast tRNA preincubated for 10 mins before addition of the enzyme by double reciprocal plot analysis; set-up: species or system Bos taurus

inhibition [1]: 20%
SMILES: O=c1[nH]c(=O)n(Cc2cn([C@@H]3O[C@H](CO)[C@@H](O)[C@H]3O)nn2)cc1Br

Ki [2]: 650 µM
SMILES: O=c1ccn([C@@H]2O[C@H](COP(=O)(O)OP(=O)(O)O)[C@@H](O)[C@H]2O)c(=O)[nH]1 [URIDINE_DIPHOSPHATE]

Ki [3]: 360 µM
Ki [4]: 0.027 µM
Ki [5]: 0.18 µM
SMILES: Nc1ncnc2c1ncn2[C@@H]1O[C@H](COP(=O)(O)OP(=O)(O)O[C@H]2C[C@H](n3ccc(=O)[nH]c3=O)O[C@@H]2COP(=O)(O)O)[C@@H](OP(=O)(O)O)[C@H]1O

Ki [6]: 0.24 µM
SMILES: O=c1ccn(Cc2cn([C@@H]3O[C@H](CO)[C@@H](O)[C@H]3O)nn2)c(=O)[nH]1

Ki [7]: 69.1 µM
SMILES: O=c1[nH]c(=O)n([C@@H]2O[C@H](CO)[C@@H](O)[C@H]2O)cc1Br

Ki [7]: 33.6 µM
SMILES: O=c1[nH]c(=O)n([C@@H]2O[C@H](CO)[C@@H](O)[C@H]2O)cc1F [5-FLUOROURIDINE]

Ki [7]: 94.8 µM
SMILES: O=c1[nH]c(=O)n(Cc2cn([C@@H]3O[C@H](CO)[C@@H](O)[C@H]3O)nn2)cc1Cl

Ki [7]: 44.5 µM
SMILES: O=c1[nH]c(=O)n([C@@H]2O[C@H](CO)[C@@H](O)[C@H]2O)cc1Cl

Ki [7]: 44.1 µM
SMILES: Cc1cn([C@@H]2O[C@H](CO)[C@@H](O)[C@H]2O)c(=O)[nH]c1=O

Ki [2]: 4000 µM
SMILES: O=c1ccn([C@@H]2O[C@H](COP(=O)(O)O)[C@@H](O)[C@H]2O)c(=O)[nH]1

Ki [7]: 28.5 µM
SMILES: O=c1ccn([C@@H]2O[C@H](CO)[C@@H](O)[C@H]2O)c(=O)[nH]1 [URIDINE]

Reference: ChEMBL document CHEMBL2203162, “Triazole pyrimidine nucleosides as inhibitors of Ribonuclease A. Synthesis, biochemical, and structural evaluation” (Bioorg Med Chem, 2012)
